Assays:
prepubescent female rats = assay: Residual estrogenic activity in vivo (uterotrophic assay)
Procedure: These compounds were checked for residual estrogenic activity in vivo in the classical uterotrophic assay after 3-day administration by oral route in prepubescent female rats.
Prepubescent female rats were orally treated at 1 mg/rat/day for 3 days. On the day following the last treatment, uteri were removed and wet weight were recorded.
The results are expressed as % of stimulation of uterus weight in comparison with controls.

[1] = tested on: ovariectomized Wistar female rats; assay: Antiuterotrophic/antisulfatase activity: inhibition of E1S stimulated uterus weight; type: in vivo, rat
Procedure: A short model, derived from Purohit's method, was developed for the evaluation in vivo of nonestrogenic steroid sulfatase inhibitors.
Wistar female rats were ovariectomized and left to rest for 4 weeks. Prior to treatment, the absence of cyclicity was checked by vaginal smears.
Animals were supplemented with estrone sulfate (E1S) at 50 μg/kg/day s.c., alone or combined with oral administration of potential sulfatase inhibitors, at 1 mg/kg/day for 4 days. The uteri were removed, freed of adjacent tissue and wet weighed.
The results are expressed as % of inhibition of the E1S induced stimulation.
The activity of Ex 55 on E1S stimulated uterus weight was evaluated in relation to the standard inhibitor 6,6,7 COUMATE from 0.03 mg/kg/day to 1 mg/kg/day p.o.
(§1) In this study, a last administration was performed 24 hours before the necropsy for E1S and E2 serum levels assays. The uteri were removed, freed of adjacent tissue, wet weighed and immediately deep frozen until the determination of sulfatase activity.

steroid sulfatase = target: T1, steroid sulfatase (Homo sapiens, UniProt P08842); assay: Xenograft steroid sulfatase activity; type: in vivo, mouse; conditions: oral 0.1 mg/kg/day for 6 weeks
T1 construct: from tissue; host or cells: MCF-7 xenograft tumour removed from athymic nude mice
T1 sequence (P08842 22-583): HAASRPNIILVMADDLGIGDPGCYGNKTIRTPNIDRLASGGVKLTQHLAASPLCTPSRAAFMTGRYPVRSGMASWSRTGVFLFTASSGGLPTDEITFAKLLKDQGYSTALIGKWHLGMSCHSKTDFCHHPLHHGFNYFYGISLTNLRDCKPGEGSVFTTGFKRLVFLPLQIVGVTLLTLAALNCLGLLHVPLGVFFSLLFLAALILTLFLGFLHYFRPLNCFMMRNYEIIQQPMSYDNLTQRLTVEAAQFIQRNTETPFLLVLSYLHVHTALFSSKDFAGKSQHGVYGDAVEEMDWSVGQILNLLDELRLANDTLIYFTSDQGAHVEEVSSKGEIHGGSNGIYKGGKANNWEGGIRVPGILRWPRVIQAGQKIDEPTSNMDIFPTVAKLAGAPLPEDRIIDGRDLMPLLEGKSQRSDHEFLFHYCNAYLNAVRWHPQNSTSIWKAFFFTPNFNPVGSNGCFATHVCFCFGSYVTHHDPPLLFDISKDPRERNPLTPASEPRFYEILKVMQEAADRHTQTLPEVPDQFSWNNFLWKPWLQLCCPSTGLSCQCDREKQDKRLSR
Procedure: (§2) MCF-7 cells, derived from human breast adenocarcinoma, were injected subcutaneously in ovariectomized athymic nude mice supplemented with estrone sulfate (pellets 0.5 mg/90 day release). Xenograft volumes were determined once weekly. When tumor volumes reached a significant increase, 6,6,7 COUMATE and Ex 55 were orally administered at 0.1 mg/kg/day for 6 weeks.
(§3) Xenografts were measured, removed, weighed, and deep frozen until the determination of steroid sulfatase activity.

MCF-7 cells = assay: Hormono-dependent induced MCF-7 xenografts: volume and weight; type: in vivo, mice; conditions: oral 0.1 mg/kg/day for 6 weeks
Procedure: as §2, §3

estrone sulfatase = target: T2, estrone sulfatase (Rattus norvegicus, UniProt P15589); assay: Estrone sulfatase activity in the uterus of treated rats; type: in vivo
T2 construct: uteri were thawed, weighed and homogenized; from tissue; host or cells: uterus of animals dosed orally (ex vivo homogenate supernatant)
T2 sequence (P15589 20-577): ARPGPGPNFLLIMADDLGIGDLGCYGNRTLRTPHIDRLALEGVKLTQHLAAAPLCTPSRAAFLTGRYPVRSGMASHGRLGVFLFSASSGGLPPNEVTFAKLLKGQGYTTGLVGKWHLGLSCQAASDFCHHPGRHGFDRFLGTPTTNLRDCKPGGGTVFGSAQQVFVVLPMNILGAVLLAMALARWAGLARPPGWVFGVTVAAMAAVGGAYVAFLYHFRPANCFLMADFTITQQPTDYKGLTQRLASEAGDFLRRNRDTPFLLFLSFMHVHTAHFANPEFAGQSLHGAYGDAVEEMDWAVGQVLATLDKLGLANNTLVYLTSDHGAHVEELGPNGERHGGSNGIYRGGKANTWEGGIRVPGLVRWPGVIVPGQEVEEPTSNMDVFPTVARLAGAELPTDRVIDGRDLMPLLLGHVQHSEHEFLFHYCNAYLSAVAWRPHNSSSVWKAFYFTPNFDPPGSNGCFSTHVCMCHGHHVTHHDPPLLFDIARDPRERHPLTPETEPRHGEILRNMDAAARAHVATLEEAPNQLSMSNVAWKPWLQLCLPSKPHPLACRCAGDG
Procedure: as §1
Estrone sulfatase activity was measured according to the method described by Purohit et al., with slight modifications. Briefly, uteri were thawed, weighed and homogenized. Aliquots of the supernatant were treated with dextran-coated charcoal and assayed for sulfatase. E1S activity was assessed after 30 min of incubation with 5 nM of ^3H-E1S and 20 μM of unlabelled E1S as substrate. Radioactivity was measured by LSC.
Estrone sulfatase activity was expressed as pmol/h/mg protein and reported as percentage of inhibition versus E1S.

[2] = MCF-7 xenografts, nude mice with E1S pellet

% stimulation of uterus weight in comparison with controls (prepubescent female rats; prepubescent female rats, oral, 1 mg/rat/day for 3 days): 3%
estrogenicity (in words) (prepubescent female rats; summary of the uterotrophic assay): lack of estrogenicity
Xenograft steroid sulfatase activity (steroid sulfatase; MCF-7 xenografts): 263 ± 17 pmol/h/mg protein
inhibition at 0.1 mg/kg/day (steroid sulfatase; read-out: inhibition of intratumoral steroid sulfatase activity): 84%
melting point: 135 °C
Estrone sulfatase activity in the uterus, percentage of inhibition versus E1S (estrone sulfatase; 0.03 mg/kg/day p.o.): 19%
Estrone sulfatase activity in the uterus, percentage of inhibition versus E1S (estrone sulfatase; 0.1 mg/kg/day p.o.): 64%
Estrone sulfatase activity in the uterus, percentage of inhibition versus E1S (estrone sulfatase; 0.3 mg/kg/day p.o.): 96%
Estrone sulfatase activity in the uterus, percentage of inhibition versus E1S (estrone sulfatase; 1 mg/kg/day p.o.): 97%
Compound: NS(=O)(=O)Oc1ccc2c(c1)S(=O)(=O)C(CC1CCCCCC1)=C2 [Ex 55, Sulfamic acid, 2-cycloheptylmethyl-benzothiophene-6-yl-1,1-dioxide ester]
Inhibition of E1S stimulated uterus weight ([1]; 0.03 mg/kg/day p.o.): 0%
Inhibition of E1S stimulated uterus weight ([1]; 0.1 mg/kg/day p.o.): 0%
Inhibition of E1S stimulated uterus weight ([1]; 0.3 mg/kg/day p.o.): 36%
Inhibition of E1S stimulated uterus weight ([1]; 1 mg/kg/day p.o.): 72%
% inhibition of the E1S induced stimulation (uterus weight) ([1]; ovariectomized rats, E1S 50 μg/kg/day s.c., compound oral 1 mg/kg/day for 4 days): 81%
inhibition of E1S stimulated uterus weight (in words) ([1]; summary of the antiuterotrophic assay): significant inhibition
Xenograft volume after 6 week treatment (MCF-7 cells; [2]): 1488 ± 233 mm^3
Xenograft weight after 6 week treatment (MCF-7 cells; [2]): 877 ± 185 mg
inhibition of the E1S induced stimulation (xenograft volume) (MCF-7 cells): 18%
inhibition of xenograft weight (MCF-7 cells): 35%

From patent US7476691B2, “Sulfamate benzothiophene derivatives as steroid sulfatase inhibitors” (Laboratoire Theramex, priority 2003, dated 2009)
